# Patent publication US4288341A, “Detergent product containing deodorant compositions” (priority 1978, dated 1981)
# Target: T1, lipoxidase (EC1.13.1.13) (Glycine max, UniProt P08170)
# T1 sequence (P08170 1-839): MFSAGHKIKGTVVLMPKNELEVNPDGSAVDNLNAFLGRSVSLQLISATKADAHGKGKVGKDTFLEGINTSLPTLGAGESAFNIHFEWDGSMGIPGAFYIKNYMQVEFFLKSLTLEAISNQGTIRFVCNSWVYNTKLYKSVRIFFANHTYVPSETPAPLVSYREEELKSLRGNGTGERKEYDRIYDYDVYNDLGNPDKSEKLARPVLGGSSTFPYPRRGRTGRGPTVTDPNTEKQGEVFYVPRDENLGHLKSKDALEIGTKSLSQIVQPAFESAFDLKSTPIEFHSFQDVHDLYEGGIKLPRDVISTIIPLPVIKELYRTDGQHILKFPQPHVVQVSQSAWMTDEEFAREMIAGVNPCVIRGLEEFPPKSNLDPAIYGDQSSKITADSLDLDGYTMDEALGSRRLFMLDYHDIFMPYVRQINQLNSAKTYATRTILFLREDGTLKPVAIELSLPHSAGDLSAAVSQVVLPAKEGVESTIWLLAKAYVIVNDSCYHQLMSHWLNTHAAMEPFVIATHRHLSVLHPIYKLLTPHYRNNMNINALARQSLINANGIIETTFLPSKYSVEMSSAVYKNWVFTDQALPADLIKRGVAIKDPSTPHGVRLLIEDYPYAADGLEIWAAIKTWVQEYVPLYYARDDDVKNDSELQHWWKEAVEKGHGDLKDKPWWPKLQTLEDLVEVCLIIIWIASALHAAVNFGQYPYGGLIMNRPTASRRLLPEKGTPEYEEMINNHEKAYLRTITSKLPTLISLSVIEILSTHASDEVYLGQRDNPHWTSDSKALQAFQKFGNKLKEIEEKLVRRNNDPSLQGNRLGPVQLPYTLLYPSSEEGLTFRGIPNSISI
# Assay: Lipoxidase test: inhibition of the oxidation of linoleic acid by lipoxidase
# Type: biochemical
# Conditions: test substrate made with 0.5% by weight solution of material in ethanol; borate buffer pH 9.0; OD 234 nm
substance,measurement,value
Dimyrcetol,"LIC (lipoxidase-inhibiting capacity, % inhibition)",16%
